Measured values from patent US8871899B2, “Control of viral-host membrane fusion with hydrogen bond surrogate-based artificial helices” (priority 2007, dated 2014).
Where a SMILES comes first, the peptide text is derived from it. Where no end group is shown, it is not given here. The star is where a group is joined. 4‑pentenoyl = C=CCCC(=O)*

Key:
[1] = biological target: IZN17 (stable model of the gp41 N-terminal three strand coiled-coil); experiment: Fluorescence polarization-based competitive binding assay (displacement of fluorescein-labeled peptide 12 from IZN17); set-up: species or system HIV-1; settings: for Binding to IZN17, result in words: fluorescence polarization competition with probe 12
[2] = system: CHO[HIVe] (clone 7d2) cells expressing HXB2 envelope and tat cocultured with U373-MAGI cells; settings: literature report; cited from earlier work
[3] = Circular dichroism spectroscopy (helicity); format: physicochemical; settings: 10% trifluoroethanol in PBS buffer
Method: CD spectra were recorded on an AVIV 202SF CD spectrometer equipped with a temperature controller using 1 mm length cells and a scan speed of 5 nm/min. The spectra were averaged over 10 scans with the baseline subtracted from analogous conditions as that for the samples. The samples were prepared in 0.1× phosphate buffered saline (13.7 mM NaCl, 1 mM phosphate, 0.27 mM KCl, pH 7.4), containing 10% trifluoroethanol, with the final peptide concentration of 50-100 μM. The concentrations of unfolded peptides were determined by the UV absorption of the tyrosine residue at 276 nm in 6.0 M guanidinium hydrochloride aqueous solution. The helix content of each peptide was determined from the mean residue CD at 222 nm, [θ]222 (deg cm^2 dmol^−1) corrected for the number of amino acids. Percent helicity was calculated from the ratio [θ]222/[θ]max, where [θ]max=(−44000+250T)(1−k/n), with k=4.0 and n=number of residues. For details on θmax calculations for HBS helices, see Wang et al., “Evaluation of Biologically Relevant Short α-Helices Stabilized by a Main-chain Hydrogen-bond Surrogate,” J. Am. Chem. Soc. 128:9248-56 (2006), which is hereby incorporated by reference in its entirety.
It was conjectured that stabilization of this peptide in helical conformation with the HBS approach may increase its helicity and affinity for IZN17. […]

[4] = system: CHO[HIVe] (clone 7d2) cells expressing HXB2 envelope and tat cocultured with U373-MAGI cells; format: cell-based, HIV-1
Method: Cell-cell fusion (i.e., syncytium formation) was assayed by coculturing CHO[HIVe] (clone 7d2) cells expressing HXB2 envelope and tat with U373-MAGI cells (M. Emerman and A. Geballe, National Institutes of Health AIDS Research and Reference Reagent Program) in the presence of different concentrations of peptides 1-10. Cell fusion allows the expression of nuclear β-galactosidase from the U373-MAGI indicator cell line and can be quantitated by monitoring β-galactosidase activity. After an overnight incubation at 37° C. after coculture, β-galactosidase enzymatic activity was measured with the Mammalian β-galactosidase Chemiluminescent Assay Kit (Gal-Screen from Applied Biosystems). The peptide inhibitor concentrations at which activities were reduced by 50% (IC50) relative to control samples lacking peptide inhibitor were calculated by fitting data to the variable-slope-sigmoid equation using the Prism program.
Cell-cell fusion (i.e., syncytium formation) was assayed by co-culturing CHO[HIVe] […] Cell fusion allows the expression of nuclear β-galactosidase from the U373-MAGI indicator cell line and can be quantitated by monitoring β-galactosidase activity.

[5] = biological target: IZN17 (stable model of the gp41 N-terminal three strand coiled-coil); experiment: Saturation binding of fluorescein-labeled peptide 12 with IZN17 (fluorescence polarization); set-up: species or system HIV-1; settings: saturation binding curve, PBS buffer at 25° C.
Method: FIG. 14 is a graph showing the saturation binding curve of fluorescein-labeled peptide 12 with IZN17 in PBS buffer at 25° C.
The relative affinity of peptides 1-10 for IZN17 (i.e., peptide 11) was determined using a fluorescence polarization-based competitive binding assay (Eckert & Kim, “Design of Potent Inhibitors of HIV-1 Entry from the gp41 N-Peptide Region,” Proc. Nat'l Acad. Sci. U.S.A. 98:11187-92 (2001); Stephens et al., “Inhibiting HIV Fusion with a β-Peptide Foldamer,” J. Am. Chem. Soc. 127:13126-7 (2005), which are hereby incorporated by reference in their entirety) with fluorescein-labeled peptide 12, shown in FIG. 13. FIG. 14 is a graph showing the saturation binding curve of fluorescein-labeled peptide 12 with IZN17 in PBS buffer at 25° C.
A previously described fluorescence polarization assay was utilized to determine the in vitro binding affinity of unconstrained peptides and HBS helices for a stable model of the gp41 N-terminal three strand coiled-coil, IZN17, which contains the binding site for residues W628, W631, and 1635 (see Example 3, supra) (Eckert & Kim, “Design of Potent Inhibitors of HIV-1 Entry from the gp41 N-Peptide Region,” Proc. Nat'l Acad. Sci. U.S.A. 98:11187-92 (2001), which is hereby incorporated by reference in its entirety). […]

## CC[C@H](C)[C@H](NC(=O)[C@H](CCC(=O)O)NC(=O)[C@H](CCCNC(=N)N)NC(=O)[C@H](CC(=O)O)NC(=O)[C@H](Cc1c[nH]c2ccccc12)NC(=O)[C@H](CCC(=O)O)NC(=O)[C@H](CCSC)NC(=O)[C@H](Cc1c[nH]c2ccccc12)NC(=O)[C@@H](NC(=O)[C@H](CCSC)NC(C)=O)[C@@H](C)O)C(=O)N[C@@H](CC(N)=O)C(=O)N[C@@H](CC(N)=O)C(=O)N[C@@H](Cc1ccc(O)cc1)C(=O)N[C@H](C(N)=O)[C@@H](C)O [peptide 1, AcMTWMEWDREINNYT-NH2, reference compound] (Ac-MTWMEWDREINNYT-NH2)
[1]; PBS pH 7.4, 0.1% pluronic F-68, 25° C., 25 μM IZN17, 15 nM probe 12, values much lower than probe Kd are upper limits, read-out: Kd, binding affinity for IZN17 (competition assay)
  Kd: 37 µM
[2]
  Activity in cell-cell fusion assays as previously shown (Sia et al.): ineffective in cell-cell fusion assays
[3]
  Helicity by CD, result in words: unstructured or very weakly helical

## CC[C@H](C)[C@H](NC(=O)[C@H](CCCCN)NC(=O)[C@H](CCCCN)NC(=O)[C@@H](NC(=O)[C@H](Cc1ccc(O)cc1)NC(=O)[C@H](CCC(=O)O)NC(=O)[C@H](CCC(=O)O)NC(=O)[C@@H](NC(=O)[C@H](CCCCN)NC(=O)[C@H](CCCCN)NC(=O)[C@H](CC(=O)O)NC(=O)[C@H](Cc1c[nH]c2ccccc12)NC(=O)[C@H](CCC(=O)O)NC(=O)[C@H](CCC(=O)O)NC(=O)[C@H](Cc1c[nH]c2ccccc12)N1CC=CCCC(=O)N[C@@H](CCSC)C(=O)N[C@@H]([C@@H](C)O)C1=O)[C@@H](C)CC)[C@@H](C)O)C(N)=O [compound 9, XMTWEEWDKKIEEYTKKI]
[4]; overnight coculture at 37° C., β-galactosidase readout, read-out: EC50, inhibition of gp41-mediated cell fusion
  EC50: 43 µM

## Suc-MTWMEWDERINNYTC^Flu-NH2 [peptide 12]
[5]
  Kd: 24 µM

## XMTWMEWDREINNYT ({4‑pentenoyl}-MTWMEWDREINNYT; staple (positions not given here); also: hydrogen bond surrogate, N-allyl residue position not given here) [compound 2]
[1]
  Binding to IZN17, result in words: did not bind the target protein with higher affinity

## CC[C@H](C)[C@H](NC(=O)[C@H](CCCCN)NC(=O)[C@H](CCCCN)NC(=O)[C@@H](NC(=O)[C@H](Cc1ccc(O)cc1)NC(=O)[C@H](CCC(=O)O)NC(=O)[C@H](CCC(=O)O)NC(=O)[C@@H](NC(=O)[C@H](CCCCN)NC(=O)[C@H](CCCCN)NC(=O)[C@H](CC(=O)O)NC(=O)[C@H](Cc1c[nH]c2ccccc12)NC(=O)[C@H](CCC(=O)O)NC(=O)[C@H](CCC(=O)O)NC(=O)[C@H](Cc1c[nH]c2ccccc12)NC(=O)[C@@H](NC(=O)[C@H](CCSC)NC(C)=O)[C@@H](C)O)[C@@H](C)CC)[C@@H](C)O)C(N)=O [peptide 10, AcMTWEEWDKKIEEYTKKI—NH2] (Ac-MTWEEWDKKIEEYTKKI-NH2)
[1]
  Binding to IZN17, result in words: bound IZN17 with a similar affinity as 9
[4]; concentrations up to 200 μM
  Cell fusion inhibition, result in words: remained ineffective in the cell culture assay
